Molecules are shown by their SMILES.

For data set [1], the target named is 5-HT2AR (Homo sapiens, UniProt P28223). The data set can be described thus: Radioligand binding assay, [3H]-ketanserin displacement. Conditions: mean ± SD from two independent measurements; read-out: Ki 5-HT2A. The procedure:
(§1) Cell pellets were thawed and homogenized in 10 vol of assay buffer using an Ultra Turrax tissue homogenizer and centrifuged twice at 35 000 g for 15 min at 4 °C, with incubation for 15 min at 37 °C in between. The composition of the assay buffers was as follows: for 5-HT1AR: 50 mM Tris HCl, 0.1 mM EDTA, 4 mM MgCl2, 10 μM pargyline and 0.1% ascorbate; for 5-HT2AR: 50 mM Tris HCl, 0.1 mM EDTA, 4 mM MgCl2 and 0.1% ascorbate; for 5- HT7bR: 50 mM Tris HCl, 4 mM MgCl2, […] and 0.1% ascorbate; and for dopamine D2LR: 50 mM Tris HCl, 1 mM EDTA, 4 mM MgCl2, 120 mM NaCl, 5 mM KCl, 1.5 mM CaCl2 and 0.1% ascorbate. All assays were incubated in a total volume of […] in 96-well microtiter plates for 1 h at 37 °C, except 5-HT2AR which was incubated at 27 °C. The process of equilibration was terminated by rapid filtration through Unifilter plates with a 96-well cell harvester, and radioactivity retained on the filters was quantified on a Microbeta plate reader (PerkinElmer, USA). For displacement studies, the assay samples contained as radioligands (PerkinElmer, USA): 2.5 nM [^3H]-8-OH-DPAT (135.2 Ci/mmol) for 5-HT1AR; 1 nM [3H]-ketanserin (53.4 Ci/mmol) for 5- HT2AR; 0.8 nM [3H]-5- CT (39.2 Ci/mmol) for 5-HT7R or 2.5 nM [3H]-raclopride (72 Ci/mmol) for D2LR. Nonspecific binding was defined with […] of 5-HT in 5-HT7R binding experiments, whereas […] were used in 5-HT2AR and D2L assays, respectively. Each compound was tested in triplicate at 7 concentrations (10^–10–10^–4 M). The inhibition constants (Ki) were calculated using the Cheng–Prusoff equation.[48] Results were expressed as means of at least two separate experiments.

Data set [2] has as its target dopamine D2LR (Homo sapiens, UniProt P14416). The data set can be described thus: Radioligand binding assay, [3H]-raclopride displacement. Conditions: mean ± SD from two independent measurements; read-out: Ki D2. The procedure: as §1
Data set [3] addresses 5-HT7R (Homo sapiens, UniProt P34969). The data set can be described thus: Radioligand binding assay, [3H]-5-CT displacement. The conditions noted are these: mean ± SD from two independent measurements; read-out: Ki 5-HT7. The protocol:
as §1

The subject of data set [4] is punished crossings. The data set can be described thus: Four-plate test (FPT) in mice. Type of data set: in vivo. Conditions: i.p., all doses tested. The protocol: (§2) The behavioral experiments were performed on male BalbC mice weighing 20–25 g, n = 333. The animals were purchased from the Animal House at the Faculty of Pharmacy, Jagiellonian University Medical College, Krakow, Poland. Mice were kept in groups of ten in Makrolon type 3 cages (dimensions 26.5 × 15 × 42 cm). The animals were kept in an environmentally controlled room (ambient temperature 22 ± 2 °C; relative humidity 50–60%; 12:12 light: dark cycle; and lights on at 8:00). They were allowed to acclimatize with the environment enriched by nesting material, tooth grinding material, houses, and toys for 1 week before commencement of the experiments. During acclimatization, mice were accustomed to the presence of female experimenters and their appropriate manner of animals’ restraint, i.e., cupping each separate mouse in open hands, according to the 3Rs recommendations (handling).[50],[51] Standard laboratory food (Sniff M-Z) and filtered water were freely available. All the experiments were conducted in the light phase between 9 AM and 2 PM. Experimental groups consisted of 6–10 randomly selected animals, depending on the experiment, and each animal was used only once. The experiments were performed by an observer who was unaware of the treatment administered. All the experimental procedures with mice were carried out under EU Directive 2010/63/EU and were approved by the Local Ethics Commission for Animal Experiments of Jagiellonian University in Krakow (Approval nos.:297/2019).
(§3) Compounds were injected once intraperitoneally (i.p.) 60 min before tests, at a volume of 10 mL/kg. Control animals received a vehicle injection according to the same schedule.
The four-plate apparatus (Bioseb, Pinellas Park, USA) was used for tests. Following a 15 s habituation period, the animal’s motivation to explore a novel environment is suppressed by an electric foot shock (0.8 mA, 0.5 s) every time it moves from one plate to another during a 1 min test session. This action is referred to as a “punished crossing” and is followed by a 3 s shock interval, during which the animal can move across plates without receiving a shock.[53]

Data set [5] has as its target T1, 5-HT1AR (Homo sapiens, UniProt P08908).
T1 sequence (P08908 1-422): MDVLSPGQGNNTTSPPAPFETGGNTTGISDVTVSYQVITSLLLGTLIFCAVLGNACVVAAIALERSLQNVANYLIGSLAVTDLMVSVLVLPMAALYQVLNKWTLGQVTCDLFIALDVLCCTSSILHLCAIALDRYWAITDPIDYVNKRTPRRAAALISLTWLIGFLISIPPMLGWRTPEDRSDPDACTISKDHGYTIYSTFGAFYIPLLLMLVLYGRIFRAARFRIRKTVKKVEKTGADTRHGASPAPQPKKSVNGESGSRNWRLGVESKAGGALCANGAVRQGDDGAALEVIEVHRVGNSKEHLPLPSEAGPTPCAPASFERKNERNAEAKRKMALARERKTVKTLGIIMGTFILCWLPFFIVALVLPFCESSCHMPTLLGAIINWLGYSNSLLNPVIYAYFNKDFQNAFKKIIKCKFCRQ
The data set can be described thus: Radioligand binding assay, [3H]-8-OH-DPAT displacement. Conditions: mean ± SD from two independent measurements; read-out: Ki 5-HT1A. The procedure: as §1

Data set [6] relates to immobility time. The data set can be described thus: Forced swim test (FST, Porsolt's test) in mice. It counts as in vivo. The conditions noted are these: 60 min before test. The protocol:
as §2, §3
The FST experiment was carried out according to the method of Porsolt et al.[52] The total duration of immobility was recorded during the last 4 min of this 6 min period. The reduction of immobility time compared to the control was a measure of antidepressant properties of the tested compound. A mouse was regarded as immobile when it remained floating on water, making only small movements to keep its head above it.

Data set [7] has as its system locomotor activity. The data set can be described thus: Spontaneous locomotor activity in mice. Type of data set: in vivo. The procedure:
as §2, §3
Locomotor activity was recorded with an Opto M3 multichannel activity monitor (Columbus Instruments, Columbus, USA). […] According to the 3Rs recommendations,[54] locomotor activity was assessed for the minimal active doses obtained in FST and/or FPT to ensure that detected antidepressant-/anxiolytic-like effects are not the result of increased motility of mice.

For data set [8], the system named is GABA (non-specific). The data set can be described thus: GABA (non-specific) binding screening at 1 µM (Eurofins Cerep). The procedure: (§4) 1.In vitro evaluation towards another related protein target (GABA, NK 1)
(§5) Table S2. Affinity results to GABA and NK 1 […]
(§6) Screening at 1 µM Screening at 1 µM
(§7) (% inhibition of control (% of inhibtion of control agonist response) specific binding) […]
(§8) adata are presented as the mean ± SD from two independent measurements
(§9) The above biological screening have been performed at Eurofins Cerep (2, rue du Professeur GARGOUÏL, B.P. 30001, 86 600 Celle l'Evescault, France according to previously described […]
(§10) Tsuji, A. et al. (1988), Antimicrob. Agents Chemother., 32: 190-194.
(§11) Eistetter, H.R. et al. (1992), Glia, 6: 89-95.
(§12) Detailed parameters for NK1 assay:
(§13) Detailed parameters for GABA (non-specific) assay: […]

Data set [9] addresses T2, NK1 (Homo sapiens, UniProt P25103).
T2 construct: Eurofins Cerep
The data set can be described thus: NK1 screening at 1 µM (Eurofins Cerep). It counts as cell-based. Conditions: read-out: NK1 % inhibition of control agonist response. The protocol: as §4, §5, §6, §7, §8, §9, §10, §11, §12, §13

Sequence of dopamine D2LR (P14416 whole entry): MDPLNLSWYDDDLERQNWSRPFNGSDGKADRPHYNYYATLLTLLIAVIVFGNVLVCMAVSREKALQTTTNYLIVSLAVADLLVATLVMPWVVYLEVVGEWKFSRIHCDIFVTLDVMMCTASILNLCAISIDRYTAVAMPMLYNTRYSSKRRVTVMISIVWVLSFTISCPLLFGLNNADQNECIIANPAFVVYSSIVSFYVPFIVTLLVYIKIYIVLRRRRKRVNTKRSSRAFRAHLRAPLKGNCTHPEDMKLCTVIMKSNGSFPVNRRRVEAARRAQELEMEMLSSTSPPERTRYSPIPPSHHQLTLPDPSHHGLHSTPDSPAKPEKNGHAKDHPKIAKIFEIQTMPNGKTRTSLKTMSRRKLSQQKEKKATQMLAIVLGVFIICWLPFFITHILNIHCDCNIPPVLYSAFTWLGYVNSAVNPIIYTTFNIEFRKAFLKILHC
Sequence of 5-HT7R (P34969 1-432): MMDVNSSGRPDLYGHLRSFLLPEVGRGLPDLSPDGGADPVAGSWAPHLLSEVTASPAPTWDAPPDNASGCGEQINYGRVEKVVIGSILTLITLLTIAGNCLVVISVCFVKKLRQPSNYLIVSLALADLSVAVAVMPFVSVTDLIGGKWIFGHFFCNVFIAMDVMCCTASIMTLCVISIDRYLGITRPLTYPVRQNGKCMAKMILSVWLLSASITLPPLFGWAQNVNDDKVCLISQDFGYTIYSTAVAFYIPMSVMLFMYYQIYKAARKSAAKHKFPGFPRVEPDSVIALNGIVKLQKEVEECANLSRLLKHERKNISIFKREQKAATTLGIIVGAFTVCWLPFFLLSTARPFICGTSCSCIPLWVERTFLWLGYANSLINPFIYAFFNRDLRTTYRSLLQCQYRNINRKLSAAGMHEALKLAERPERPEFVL
Sequence of 5-HT2AR (P28223 whole entry): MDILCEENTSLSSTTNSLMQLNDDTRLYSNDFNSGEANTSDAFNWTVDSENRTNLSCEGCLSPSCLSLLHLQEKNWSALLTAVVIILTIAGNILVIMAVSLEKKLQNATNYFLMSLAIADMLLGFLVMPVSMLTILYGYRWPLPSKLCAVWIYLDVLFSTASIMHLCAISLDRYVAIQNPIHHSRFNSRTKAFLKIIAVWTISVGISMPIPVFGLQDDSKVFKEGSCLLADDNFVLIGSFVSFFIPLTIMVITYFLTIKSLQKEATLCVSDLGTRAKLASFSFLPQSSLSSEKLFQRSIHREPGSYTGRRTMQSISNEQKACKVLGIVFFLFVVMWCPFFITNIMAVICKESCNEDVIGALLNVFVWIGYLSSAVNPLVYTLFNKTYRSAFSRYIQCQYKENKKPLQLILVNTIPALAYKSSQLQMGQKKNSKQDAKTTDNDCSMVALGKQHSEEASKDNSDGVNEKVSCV
T2 sequence (P25103 whole entry): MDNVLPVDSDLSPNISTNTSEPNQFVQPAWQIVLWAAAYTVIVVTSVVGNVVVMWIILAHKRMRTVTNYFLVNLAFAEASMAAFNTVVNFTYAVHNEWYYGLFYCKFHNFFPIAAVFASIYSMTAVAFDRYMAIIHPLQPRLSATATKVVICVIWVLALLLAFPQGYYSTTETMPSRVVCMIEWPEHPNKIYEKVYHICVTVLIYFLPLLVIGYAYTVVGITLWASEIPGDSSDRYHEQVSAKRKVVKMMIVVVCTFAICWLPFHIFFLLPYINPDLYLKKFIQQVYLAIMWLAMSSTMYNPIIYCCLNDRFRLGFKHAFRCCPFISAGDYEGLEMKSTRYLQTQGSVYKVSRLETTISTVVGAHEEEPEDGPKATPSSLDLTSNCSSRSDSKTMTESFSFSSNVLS

On to `C[C@]1(c2ccc(F)cc2)NC(=O)N(C[C@@H](O)CN2CCN(C(c3ccccc3)c3ccccc3)CC2)C1=O` [Compound 6.1, (R)-3-((S)-3-(4-Benzhydrylpiperazin-1-yl)-2-hydroxypropyl)-5-(4-fluorophenyl)-5-methylimidazolidine-2,4-dione], for which the results for the Ki in data set [1], in data set [2] and in data set [3] were 12300 nM, 463 ± 75 nM and 2900 ± 461 nM, respectively.
As to `COc1ccccc1N1CCN(C[C@@H](O)CN2C(=O)N[C@@](C)(c3ccc(F)cc3)C2=O)CC1` [Compound 5.4, (S)-5-(4-Fluorophenyl)-3-((R)-2-hydroxy-3-(4-(2-methoxyphenyl)piperazin-1-yl)propyl)-5-methylimidazolidine-2,4-dione], in [4], the anxiolytic-like activity result was “inactive”. Moreover, the Ki (in general, the dissociation constant of the complex between target and ligand, obtained from inhibition or displacement) in data set [5] worked out at 306 ± 71 nM; in data set [1], 21800 nM; in data set [2] it was 888 ± 97 nM. Further, the “decrease of immobility time vs vehicle” value was found to be 25% in [6] (5 mg/kg i.p.) and 20% in [6] (10 mg/kg i.p.). For the same molecule, the “locomotor activity number of crossings ± SEM during 3–6 min” value in [7] (5 mg/kg i.p.) is reported as 138.75 ± 36.61; NS. In data set [7] (5 mg/kg i.p.), the “locomotor activity number of crossings ± SEM during 1 min” value is on record as 18.50 ± 8.00; NS. For the same molecule, in [7] (5 mg/kg i.p.), the “locomotor activity number of crossings ± SEM during 60 min” value is 716.25 ± 117.75; p < 0.001. In addition, the “GABA (non-specific) % of inhibition of control specific binding” value in data set [8] was determined as 7%. For the same molecule, the inhibition (as a rule, the percentage by which the read-out fell short of the control) at 1 µM in data set [9] stood at 2.9%.
For `C[C@]1(c2ccc(F)cc2)NC(=O)N(C[C@H](O)CN2CCN(C(c3ccccc3)c3ccccc3)CC2)C1=O` [Compound 6.2, (R)-3-((R)-3-(4-Benzhydrylpiperazin-1-yl)-2-hydroxypropyl)-5-(4-fluorophenyl)-5-methylimidazolidine-2,4-dione], the Ki amounted to 11400 nM in [1], 1520 ± 331 nM in [2] and 9090 ± 1700 nM in [3].
Consider `COc1ccccc1N1CCN(C[C@H](O)CN2C(=O)N[C@@](C)(c3ccc(F)cc3)C2=O)CC1` [Compound 5.3, (S)-5-(4-Fluorophenyl)-3-((S)-2-hydroxy-3-(4-(2-methoxyphenyl)piperazin-1-yl)propyl)-5-methylimidazolidine-2,4-dione], for which the results for the Ki in data set [5] and in [2] were 219 ± 43 nM and 1110 ± 137 nM, respectively.
For `COc1ccccc1N1CCN(CC(O)CN2C(=O)NC(C)(c3ccc(F)cc3)C2=O)CC1` (stereo not shown) [Compound 1], the anxiolytic-like activity result in [4] is “inactive”. For the same molecule, the inhibitory constant (Ki) in data set [5] was found to be 121 ± 18 nM; in data set [2] it was 715 ± 163 nM. Besides, the “decrease of immobility time vs vehicle” value in data set [6] (2.5 mg/kg i.p.) was “about 32%”; in [6] (5 mg/kg i.p.) it was approximately 25%. Further, the “locomotor activity number of crossings ± SEM during 1 min” value in data set [7] (2.5 mg/kg i.p.) is 10.50 ± 4.11; NS. In [7] (2.5 mg/kg i.p.), the “locomotor activity number of crossings ± SEM during 60 min” value is given as 183.75 ± 33.41; p < 0.001.
With `COc1ccccc1N1CCN(C[C@H](O)CN2C(=O)N[C@](C)(c3ccc(F)cc3)C2=O)CC1` [Compound 5.1, (R)-5-(4-Fluorophenyl)-3-((S)-2-hydroxy-3-(4-(2-methoxyphenyl)piperazin-1-yl)propyl)-5-methylimidazolidine-2,4-dione], the Ki worked out at 939 ± 153 nM in data set [5] and 462 ± 94 nM in data set [2].
For `C[C@@]1(c2ccc(F)cc2)NC(=O)N(C[C@@H](O)CN2CCN(C(c3ccccc3)c3ccccc3)CC2)C1=O` [Compound 6.3, (S)-3-((S)-3-(4-Benzhydrylpiperazin-1-yl)-2-hydroxypropyl)-5-(4-fluorophenyl)-5-methylimidazolidine-2,4-dione], the Ki in data set [1] is 4130 ± 983 nM; in [2], 312 ± 52 nM; in data set [3], 120 ± 27 nM.
Regarding `COc1ccccc1N1CCN(C[C@@H](O)CN2C(=O)N[C@](C)(c3ccc(F)cc3)C2=O)CC1` [Compound 5.2, (R)-5-(4-Fluorophenyl)-3-((R)-2-hydroxy-3-(4-(2-methoxyphenyl)piperazin-1-yl)propyl)-5-methylimidazolidine-2,4-dione], the figures for the Ki in data set [5], in data set [1] and in data set [2] were 1880 ± 351 nM, 41100 nM and 712 ± 101 nM, respectively.
